{
  "source": "paper PMC4232301",
  "about": "(Organic & biomolecular chemistry, 2012)",
  "biological_target": "[KS6AT6] (DEBS module 6 ketosynthase-acyltransferase didomain) (Saccharopolyspora erythraea, UniProt Q03133)",
  "sequence (Q03133 1475-2340 limits assumed)": "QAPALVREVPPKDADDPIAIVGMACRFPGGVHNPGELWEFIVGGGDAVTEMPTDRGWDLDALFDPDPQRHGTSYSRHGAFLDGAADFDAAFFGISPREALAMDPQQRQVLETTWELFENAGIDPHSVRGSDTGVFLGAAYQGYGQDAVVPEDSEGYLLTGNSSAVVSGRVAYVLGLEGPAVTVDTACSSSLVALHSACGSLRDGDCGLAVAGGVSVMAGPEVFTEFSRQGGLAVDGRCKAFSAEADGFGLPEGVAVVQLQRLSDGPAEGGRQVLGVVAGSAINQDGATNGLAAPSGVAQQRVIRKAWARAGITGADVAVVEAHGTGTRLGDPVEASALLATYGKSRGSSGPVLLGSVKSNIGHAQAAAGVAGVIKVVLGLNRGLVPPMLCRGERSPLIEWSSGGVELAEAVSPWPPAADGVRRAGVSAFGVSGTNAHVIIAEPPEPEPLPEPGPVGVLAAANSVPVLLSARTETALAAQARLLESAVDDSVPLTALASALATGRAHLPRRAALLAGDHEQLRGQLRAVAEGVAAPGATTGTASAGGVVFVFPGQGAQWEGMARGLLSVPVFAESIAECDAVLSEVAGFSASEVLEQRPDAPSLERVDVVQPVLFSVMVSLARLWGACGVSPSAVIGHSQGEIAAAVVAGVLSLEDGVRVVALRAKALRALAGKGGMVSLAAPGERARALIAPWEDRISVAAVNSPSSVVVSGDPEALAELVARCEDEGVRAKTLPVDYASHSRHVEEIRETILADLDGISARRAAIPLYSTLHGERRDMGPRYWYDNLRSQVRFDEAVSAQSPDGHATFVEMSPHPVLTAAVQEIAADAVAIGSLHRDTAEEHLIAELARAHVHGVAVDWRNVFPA",
  "experiment": "LC-MS of tryptic digest, methylmalonyl transfer to holo-ACP2",
  "format": "biochemical",
  "conditions": "acyl acceptor purified holo-ACP2; AT domain; 30 min",
  "data": [
    {"smiles": "CC(C(=O)O)C(=O)SCCNC(=O)CCNC(=O)[C@H](O)C(C)(C)COP(=O)(O)OP(=O)(O)OC[C@H]1O[C@@H](n2cnc3c(N)ncnc32)[C@H](O)[C@@H]1OP(=O)(O)O", "note": "(stereo partly shown) [methylmalonyl-CoA]", "values": [
      {"measurement": "LC-MS of tryptic digest, methylmalonyl transfer to holo-ACP2", "value": "purified ACP remains competent for AT-ACP methylmalonate transfer"}
    ]}
  ]
}
